Results reported in a melting point compilation (Tetko et al.; mined from patent text by program, amines drawn as free bases though some values may be those of a salt).

First: CC(C(=O)O)N1CCNC(C(=O)O)C1 (stereo unspecified)
Second: CC(CCn1c(=O)[nH]c2ccccc21)N1CCC(CC(=O)c2ccc(F)cc2)CC1 (stereo unspecified)
The melting point of the first is lower: 173 to 174 °C for the first, 185 °C for the second.

First: CC(C=C(N)C(=O)OCc1ccc(Cl)cc1)CP(=O)(O)O (stereo unspecified)
Second: CCOC(=O)C(=Cc1c(Cl)n(Cc2ccc(Cl)cc2)c2ccccc12)C(=O)OCC
The melting point of the first is higher: 207 to 208 °C for the first, 98 to 99 °C for the second.

First: Cc1cccc(-c2nc(C)cc(NC3CCCCC3)n2)n1
Second: CCOC(=O)N1CCC(Nc2nc3cccnc3n2Cc2ccc(CC)o2)CC1
The melting point of the first is lower: 59.6 to 65 °C for the first, 111 °C for the second.

First: O=C(CC(=O)C(CF)CF)c1ccc(OCc2ccccc2)cc1
Second: C=CC(=O)Nc1ccc2ncnc(Nc3ccc(OCc4ccccc4)cc3)c2c1
The melting point of the first is lower: 184 to 188 °C for the first, 227 to 229 °C for the second.

Compared with `O=C(O)C1Cc2c([nH]c3ccccc23)CN1C(=S)SCCc1ccccc1` (stereo unspecified), `O=C1c2ccccc2SC(O)(c2ccccc2)C2CCCN12` (stereo unspecified) is higher in melting point: 89 to 90 °C for the first, 137 to 141 °C for the second.

First: CN(CCCc1cc(F)c2ncc(C(=O)NCc3ccc(Cl)cc3)c(O)c2c1)Cc1ccccc1
Second: Cc1cc(-n2ccc(OCc3ccc(C(F)(F)F)cc3)cc2=O)sc1C(=O)NCc1ccccc1
The melting point of the first is lower: 161 to 162 °C for the first, 225 to 227 °C for the second.

Going from `O=C(OCCS(=O)(=O)Cc1ccccc1)c1cc(Oc2ccc(C(F)(F)F)cc2Cl)ccc1[N+](=O)[O-]` to `O=C(O)c1ccc(-c2cnc3c(c2)N(Cc2ccccc2)C(=O)CN3)cc1`, the melting point rises from 105 °C to over 200 °C.

First: O=S1(=O)NCN(CCF)c2cc(Cl)c(Cl)cc21
Second: CC(C(=O)N(C)C)n1cc(Cl)c(-c2c(Cl)cccc2Cl)n1 (stereo unspecified)
The melting point of the first is higher: 156 to 157 °C for the first, 126 to 128 °C for the second.

First: CCOP(=O)(CCC1(C)NC(=O)NC1=O)OCC (stereo unspecified)
Second: CCOC(=O)c1cc2ccoc2nc1C(=O)OCC
The melting point of the first is higher: 100 to 103 °C for the first, 66 to 77 °C for the second.

Compared with `Cc1ccc(CC(=O)NC(NC(=NC#N)Nc2cccnc2C)C(C)(C)C)cc1F` (stereo unspecified), `COc1cccc(C2COc3c(C)c(C)c(NC(=O)CC(C)(C)C)c(C)c32)c1` (stereo unspecified) is higher in melting point: 75 to 77 °C for the first, 169 to 170 °C for the second.

First: CC(C)CNc1nc(-c2ccccc2)c(Cl)n2c(-c3ccc(C(=O)NC4CC4)cc3)cnc12
Second: O=C(NCC1CC1)c1ccc(-c2ccc3nnn(Cc4ccc5ncccc5c4)c3n2)cc1F
The melting point of the first is higher: 180 °C for the first, 120 to 122 °C for the second.

First: O=C(c1ccccc1)n1cc(F)c(=O)n(C(=O)c2ccccc2)c1=O
Second: CCC(=C(c1ccccc1)c1ccc(C=CC(N)=NO)cc1)c1ccccc1
The melting point of the first is higher: 195 °C for the first, 182 to 185 °C for the second.

First: NCc1ccc(CNC(=O)[C@@H](CCCNC(N)=N[N+](=O)[O-])NC(=O)C(c2ccccc2)c2ccccc2)cc1
Second: Cc1c(-c2ccccc2)oc2c(C(=O)NCCCN3CCN(c4ccccc4O)CC3)cccc2c1=O
The melting point of the first is higher: 198 to 199 °C for the first, 118 to 120 °C for the second.

Compared with `CCCOC(=O)C1=C(N)NC(C)=C(C#N)C1c1cccc2ncc(-c3ccccc3)cc12` (stereo unspecified), `CCCC(=O)Nc1cc(CNc2ccccc2C(=O)Nc2cc3ccccc3cn2)ccn1` is lower in melting point: 237 °C for the first, 173 °C for the second.

First: CCOCc1nc2c(N)nc3ccc(OCc4ccccc4)cc3c2n1CC(C)(C)O
Second: CC(C)(Cc1cc2cc(OCc3ccc4occc4n3)ccc2n1Cc1ccc(Cl)cc1)C(=O)O
The melting point of the first is higher: 181 to 182 °C for the first, 157 °C for the second.

Compared with `CC12CC(=O)C3C(CCC4CC(O)CCC43C)C1CCC2C(=O)OCC#N` (stereo unspecified), `CC#CC1(O)CCC2C3CCC4=CC(=O)CCC4C3CCC21CC` (stereo unspecified) is lower in melting point: 142 to 146 °C for the first, 124 to 125 °C for the second.

First: COC(=O)CCCCCNC(=O)C(COS(C)(=O)=O)NS(=O)(=O)c1ccc(Cl)cc1 (racemic)
Second: N#CCCCCCCCCNS(=O)(=O)c1cccc(Cl)c1
The melting point of the first is higher: 81 to 84 °C for the first, 42 to 43 °C for the second.

First: CCCc1c(OCCCOc2cc(NC(=O)C(=O)O)c(C)cc2Br)ccc(C(C)=O)c1O
Second: CCCCOCCOc1ccc(-c2ccc(N3CCC(COC(C)=O)C3)c(C=C(C)C(=O)O)c2)cc1 (stereo unspecified)
The melting point of the first is lower: 101 to 103 °C for the first, 110 to 111 °C for the second.

Compared with `C#Cc1ccc(-c2c(C)n[nH]c(=O)c2-c2c(F)cc(F)cc2F)cc1`, `Cc1nc(Cl)c(-c2ccc(F)cc2)n1-c1ccc(Cl)cc1` is lower in melting point: 252 to 254 °C for the first, 124 to 126 °C for the second.

Compared with `CS(=O)(=O)Nc1c([N+](=O)[O-])cnn1-c1c(F)c(F)c(C(F)(F)F)c(F)c1F`, `CCOc1cc(-c2cc(C(F)(F)F)n3ncc(C(=O)Nc4nc(C)c(S(N)(=O)=O)s4)c3n2)ccc1C(F)(F)F` is higher in melting point: 163 to 168 °C for the first, 300 °C for the second.

Compared with `COc1cc(NCCOc2ccccc2C)ccc1C(=O)N1CCCC(CC(=O)N2CCN(C)CC2)c2cc(Cl)ccc21` (stereo unspecified), `CC(=O)N1CCC(Nc2ccccc2Oc2ccc(Cl)cc2Cl)CC1` is lower in melting point: 160 to 161 °C for the first, 145 to 146 °C for the second.

First: CCOc1ccc(O)c2c1C(=O)N(CSc1nnnn1-c1ccccc1)S2(=O)=O
Second: O=c1nc(-c2ccnc(OCc3ccccc3)c2)sc2ccccc12
The melting point of the first is higher: 178 to 180 °C for the first, 116 °C for the second.

First: COC(=O)C(=C\c1ccc(OC2CCCC2)c(OC)c1)/C(=C\c1ccccc1)C(N)=O
Second: Cc1ccc(C2(O)CCCCC2C(c2ccccc2)N(C)C)cc1 (stereo unspecified)
The melting point of the first is lower: 158 to 159 °C for the first, 168 to 169 °C for the second.

First: CCCc1coc2c(Cc3ccc(C(C)C)cc3)c(C)cc(C)c12
Second: CCN(CC)C(=O)Cc1c(-c2ccc(Br)cc2)nc2c(C)cc(C)nn12
The melting point of the first is lower: 89 to 90 °C for the first, 171 to 175 °C for the second.

First: COc1ccc(F)c(N)c1
Second: COc1ccc(Cl)cc1-c1nnn(-c2ccc(Cl)cc2Cl)c1N
The melting point of the first is lower: 27 to 28 °C for the first, 154 to 155 °C for the second.

First: O=C(Nc1ccc2nc(CN3CCCC3)ccc2c1)c1ccc(-c2ccc(F)cc2)cc1
Second: Cc1ccccc1C(=O)Nc1ccc(C(=O)N2Cc3cccn3-c3ccccc32)cc1
The melting point of the first is lower: 190 to 193 °C for the first, 206 to 207 °C for the second.

First: CC1CC(N2C(=O)c3ccccc3C2=O)C(=O)NC1=O (stereo unspecified)
Second: Nc1cccc2c1C(=O)N([C@@H]1CCC(=O)NC1=O)C2=O
The melting point of the first is lower: 270 to 272 °C for the first, 308 to 310 °C for the second.

First: O=C(O)c1cnoc1-c1ccc(Cl)cc1Cl
Second: CCC(C(=O)N(C)C)n1cc(C)c(-c2ccc(Cl)cc2C)n1 (stereo unspecified)
The melting point of the first is higher: 122 to 123 °C for the first, 89 to 92 °C for the second.

Compared with `CCN(CC)Cc1nc(-c2ccc(OC)c(OC)c2)c2cc(OC)c(OC)cc2n1`, `COc1cc2ncnc(N3CCC(=O)CC3)c2cc1OC` is higher in melting point: 111 to 113 °C for the first, 176 to 178 °C for the second.

First: COc1ccc2nnc(-c3ncc([N+](=O)[O-])n3C)n2n1
Second: O=[N+]([O-])c1cccc(COc2cccc3cccnc23)c1
The melting point of the first is higher: 193 to 198 °C for the first, 98 to 99 °C for the second.

First: Cc1cccc(Nc2cc(Nc3cccc(OCC(O)CN(C)C)c3)ncn2)c1 (stereo unspecified)
Second: Cc1c(NCCCCNCC(O)COc2ccccc2)n(C)c(=O)n(C)c1=O (stereo unspecified)
The melting point of the first is lower: 120 to 122 °C for the first, 148 to 150 °C for the second.

First: O=C(N[C@H](Cc1ccc(Oc2ccccc2)cc1)[C@@H](O)c1ccc(F)cc1)c1ccc(F)c2ccccc12 (racemic)
Second: O=c1oc(-c2ccc(Sc3ccccc3)cc2)cc(O)c1SCCc1ccccc1
The melting point of the first is lower: 104 to 105 °C for the first, 120 to 121 °C for the second.

First: O=C(N1CCCC1)C(CCN1CCC(O)(c2ccccc2)CC1)(c1ccccc1)c1ccccc1
Second: CN(c1cccc2cc(C(=O)NCC3(SCc4ccccc4)CCC4(CC3)OCCO4)[nH]c12)S(=O)(=O)c1cccs1
The melting point of the first is lower: 188 °C for the first, 211 to 212 °C for the second.

Compared with `CNS(=O)(=O)c1cn(C)c2cc(Cl)ccc2c1=O`, `Cc1cc(S(=O)(=O)NCC(C)c2ccccc2)ccc1Cl` (stereo unspecified) is lower in melting point: 220 to 223 °C for the first, 73 to 74 °C for the second.

First: CC(C)n1cc(C(=O)C(F)(F)F)c2ccc([N+](=O)[O-])cc21
Second: O=C(Nc1ccc(-n2nc(C(F)(F)F)cc2C(F)(F)F)cc1)c1ccc(Br)cc1Cl
The melting point of the first is lower: 143 to 145 °C for the first, 164 to 167 °C for the second.

Compared with `CC(=O)NC(=N)N(C)C1CCN(c2nc3ccccc3n2Cc2ccc(F)cc2)CC1`, `CN1CCC(C2(O)c3ccc(F)cc3Sc3ccc(F)cc32)CC1` (stereo unspecified) is higher in melting point: 192 °C for the first, 207 to 209 °C for the second.

Compared with `NC(=O)c1cc(Cl)c(Cl)c(Cl)n1`, `CCn1c(=NC(C)=O)c(-c2c(Cl)cccc2Cl)cc2cnc(SC)nc21` is higher in melting point: 169 to 170 °C for the first, 175 to 177 °C for the second.

First: COC(=O)c1cccc(-c2nc(-c3ccc(OC)cc3)cs2)c1
Second: COc1ccc(CN(OC)C(=O)C2=C(O)C(=O)N(C)C2)cc1
The melting point of the first is lower: 108 to 109 °C for the first, 135 to 137 °C for the second.

First: Cc1cn(-c2nc(C3=Nc4ccc(-c5ccccc5F)cc4NC(=O)C3)cs2)cn1
Second: COc1ccc2[nH]c3c(c2c1)C[C@@]1(C)C(=O)N(CCn2ccnc2)C(=O)N1[C@@H]3c1cccc(O)c1 (racemic)
The melting point of the first is lower: 229 °C for the first, 321 to 324 °C for the second.

First: [O-][N+]1=C(c2ccccc2)c2cc(Cl)ccc2CCC1
Second: ClCC1(CCl)Cc2cccc3cccc1c23
The melting point of the first is lower: 120 to 125 °C for the first, 212 to 213 °C for the second.

First: CCCCCCCCCCCCCCNC1=NS(=O)(=O)c2sc(Cl)cc2N1
Second: CCCn1cc(NC(=O)C(N)c2ccc3c(c2)C(C)(C)CCC3(C)C)cc1C(=O)OC (stereo unspecified)
The melting point of the first is higher: 157 to 158 °C for the first, 152 to 153 °C for the second.

First: CCOC(=O)N1CCN(CCCN2C(=O)c3ccccc3C2=O)CC1
Second: CC(C)(C)OC(=O)N[C@H]1CC[C@H](CCN2CCN(c3cccc4c3CCC4)CC2)CC1
The melting point of the first is lower: 77 to 84 °C for the first, 115 to 118 °C for the second.

First: Cc1cc2c(cc1O)C(C1(c3ccccn3)CC1)N(C)CC2 (stereo unspecified)
Second: Cc1ccc(C(=S)c2ccc3n2CCCC3C#N)cc1 (stereo unspecified)
The melting point of the first is higher: 218 °C for the first, 118 to 119 °C for the second.

First: FC(F)COc1cc(NC2=NCC3(CN4CCC3CC4)O2)ncn1 (stereo unspecified)
Second: OC[C@@H]1OC[C@H](n2c(NC3CC3)nc3cc(Cl)c(Cl)cc32)[C@@H](O)[C@H]1O
The melting point of the first is lower: 83 to 88 °C for the first, 164 °C for the second.

Compared with `O=C(O)CCc1oc(=S)[nH]c1-c1ccc(Cl)cc1`, `CCOC(=O)c1c[nH]c2cccc(O)c12` is lower in melting point: 196 to 197 °C for the first, 151 to 153 °C for the second.

Compared with `COc1ncc(CS(=O)(=O)CC(=O)O)cc1[N+](=O)[O-]`, `COc1cc2c(cc1OC)CN(NC1=NCCN1)C2` is higher in melting point: 183 to 186 °C for the first, 191 to 192 °C for the second.

Compared with `CC1(C)CC(=O)c2c(NCc3ccco3)sc(-c3cc[nH]n3)c2C1`, `NC(=O)NN=Cc1c2ccccc2c(C=NNC(N)=O)c2ccccc12` is higher in melting point: 204 to 206 °C for the first, 300 °C for the second.

First: O=C1CC(Cc2ccncc2)(Cc2ccncc2)C(=O)N1C12CC3CC(CC(C3)C1)C2
Second: O=Cc1ccc2c(c1)C1(c3ccccc3-2)c2ccccc2-c2ccc(C=O)cc21
The melting point of the first is lower: 137 to 138 °C for the first, over 300 °C for the second.
